Laboratory results from PubChem BioAssay AID1963830 (Molecular Pharmacology Branch, DTP, NCI, 2024).
Where “and” joins values, the source holds several entries; their conditions need not be identical. Equal values may be shown once.

Tested on: 922993-354-T-J3-PDC complex spheroid viability
Experiment: Anticancer human tumor 922993-354-T-J3-PDC patient-derived endometrial carcinoma cell line growth inhibition [POLQ]
Details: for viability, T/C: stronger effect = lower value
Protocol: Multicellular complex tumor spheroid response to Polymerase (POL) inhibitors (novobiocin, ART-558, RP6685) in combination with a variety of drugs and investigational agents in selected tumor cell lines
The POL inhibitors (novobiocin, ART-558, and RP6685) were evaluated both individually and in combination with standard of care and investigational anticancer small molecules within a complex spheroid model of solid tumors. . Complex spheroids include a stromal component modeled by human endothelial cells (HUVEC) and fibroblasts modeled by human mesenchymal stem cells (MSCs). The concentration ranges selected for each drug and investigational agent were based upon clinically achievable concentrations if the clinical Cmax of the agent was known.
Compounds. The drugs and investigational agents: novobiocin (NSC847541), ART-558 (NSC835418), RP-6685 (NSC848927), peposertib (NSC802822), ceralasertib (NSC780249), elimusertib (NSC800525), camonsertib (NSC841442), AZD-1390 (NSC803789), olaparib (NSC753686), talazoparib (NSC767125), rucaparib (NSC756644), sotorasib (NSC818433), MRTX-1133 (NSC836407), SN-38 (NSC673596), topotecan (NSC609699), epotoside (NSC141540), doxorubicin (NSC123127), gemcitabine (NSC613327), 5-fluorouracil (NSC19893), paclitaxel (NSC125973), vemurafenib (NSC761431), MSA-2 (NSC828583), SN-011 (NSC837082), adavosertib (NSC754352), prexasertib (NSC758257), carboplatin (NSC241240) and oxaliplatin (NSC266046), were obtained from the National Cancer Institute (NCI) Developmental Therapeutics Program Chemical Repository (21). The FDA-approved anticancer drug set is available from the Developmental Therapeutics Program at https://dtp.cancer.gov/organization/dscb/obtaining/. […] The stock solutions were prepared in dimethyl sulfoxide (DMSO, Sigma-Aldrich, St. Louis, MO, cat. D2650), except for the platinum compounds which were prepared in saline (Quality Biological, Gaithersburg, MD, cat. 114-055-101), at 800-fold the tested concentration and stored at -70 degrees C prior to their use. All drugs and investigational agents were tested over a range starting from a high concentration at or near the clinical Cmax and decreasing in half-log increments. If the clinical Cmax for an agent had not been determined, the highest concentration tested was 10 microM, except for SN-38, which was tested at a high concentration of 1 microM.
Cell Culture. All cells were maintained in an incubator at 37 degrees C and 5% CO2 with 95% humidity. The PDC lines were cultured according to standard operating procedures established by the NCI PDMR (https://pdmr.cancer.gov). Table 3 of the manuscript, lists the cell lines along with the number of the three cell types plated to form the mct-spheroids and media for tumor cell growth. After thawing, all PDC lines, except 997537-175-T-J1-PDC and 415267-285-R-J2-PDC, were cultured in Matrigel-coated flasks prepared with a working solution of 1X Ham's F-12 nutrient mix, without supplementation (Thermo Fisher Scientific, cat. 11765054), 100 U/mL penicillin-streptomycin (Thermo Fisher Scientific, cat. 15140122), and 2.5% Matrigel (Corning Inc., Corning, NY, cat. 354248) for the first three passages. The two PDC lines 997537-175-T-J1-PDC and 415267-285-R-J2-PDC were cultured on uncoated flasks. The 857933-349-R-J2-PDC line was cultured in 6C/Colon 1B media containing advanced DMEM/F-12 (Thermo Fisher Scientific, cat. 12634028), 10 mM HEPES (Thermo Fisher Scientific, cat. 15630080), 1X GlutaMAX supplement (Thermo Fisher Scientific, cat. 35050061), 0.1 mg/mL primocin (InvivoGen, San Diego, CA, cat. ant-pm-2), 10% defined fetal bovine serum, heat inactivated (HyClone Laboratories Inc., Logan, UT, cat. SH30070.03HI), 50% L-WRN conditioned media (ATCC, cat. CRL-3276), 1.25 mM N-Acetyl-L-cysteine (Sigma-Aldrich, cat. A9165), 10 mM nicotinamide (Sigma-Aldrich, cat. N0636), 1X B-27 supplement (Thermo Fisher Scientific, cat. 17504044), 1X N-2 supplement (Thermo Fisher Scientific, cat. […]

[1] = curve of first compound, second compound 0.0316 µM
[2] = curve of first compound, second compound 0.1 µM
[3] = curve of first compound, second compound 0.316 µM
[4] = curve of first compound, second compound 1 µM
[5] = curve of first compound, second compound 3.16 µM
[6] = curve of first compound, second compound 10 µM
[7] = second compound 0.0316 µM, first compound 0.0316 µM
[8] = second compound 0.0316 µM, first compound 0.1 µM
[9] = second compound 0.0316 µM, first compound 0.316 µM
[10] = second compound 0.0316 µM, first compound 1 µM
[11] = second compound 0.0316 µM, first compound 3.16 µM
[12] = second compound 0.0316 µM, first compound 10 µM
[13] = second compound 0.1 µM, first compound 0.0316 µM
[14] = second compound 0.1 µM, first compound 0.1 µM
[15] = second compound 0.1 µM, first compound 0.316 µM
[16] = second compound 0.1 µM, first compound 1 µM
[17] = second compound 0.1 µM, first compound 3.16 µM
[18] = second compound 0.1 µM, first compound 10 µM
[19] = second compound 0.316 µM, first compound 0.0316 µM
[20] = second compound 0.316 µM, first compound 0.1 µM
[21] = second compound 0.316 µM, first compound 0.316 µM
[22] = second compound 0.316 µM, first compound 1 µM
[23] = second compound 0.316 µM, first compound 3.16 µM
[24] = second compound 0.316 µM, first compound 10 µM
[25] = second compound 1 µM, first compound 0.0316 µM
[26] = second compound 1 µM, first compound 0.1 µM
[27] = second compound 1 µM, first compound 0.316 µM
[28] = second compound 1 µM, first compound 1 µM
[29] = second compound 1 µM, first compound 3.16 µM
[30] = second compound 1 µM, first compound 10 µM
[31] = second compound 3.16 µM, first compound 0.0316 µM
[32] = second compound 3.16 µM, first compound 0.1 µM
[33] = second compound 3.16 µM, first compound 0.316 µM
[34] = second compound 3.16 µM, first compound 1 µM
[35] = second compound 3.16 µM, first compound 3.16 µM
[36] = second compound 3.16 µM, first compound 10 µM
[37] = second compound 10 µM, first compound 0.0316 µM
[38] = second compound 10 µM, first compound 0.1 µM
[39] = second compound 10 µM, first compound 0.316 µM
[40] = second compound 10 µM, first compound 1 µM
[41] = second compound 10 µM, first compound 3.16 µM
[42] = second compound 10 µM, first compound 10 µM
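Note: spheroids exposed to the agents for one week.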
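Throughout, for viability, T/C: 100% = DMSO vehicle control wells.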

COc1cccc2c1C(=O)c1c(O)c3c(c(O)c1C2=O)CC(O)(C(=O)CO)CC3OC1CC(N)C(O)C(C)O1 (stereo not drawn) + Cc1cccc(N(C)C(=O)C2C(O)CCN2c2nc(C)cc(C(F)(F)F)c2C#N)c1
IC50 [1]: 1.27 µM
IC50 [2]: 1.21 µM
IC50 [3]: 0.947 µM
IC50 [4]: 1.12 µM
IC50 [5]: 0.555 µM
IC50 [6]: 0.186 µM
viability, T/C [7]: 96.3%
viability, T/C [8]: 88%
viability, T/C [9]: 81.4%
viability, T/C [10]: 51.8%
viability, T/C [11]: 32.3%
viability, T/C [12]: 11.7%
viability, T/C [13]: 101%
viability, T/C [14]: 97.2%
viability, T/C [15]: 81.6%
viability, T/C [16]: 55.1%
viability, T/C [17]: 26.4%
viability, T/C [18]: 11.6%
viability, T/C [19]: 103%
viability, T/C [20]: 92.7%
viability, T/C [21]: 84.9%
viability, T/C [22]: 45%
viability, T/C [23]: 27.2%
viability, T/C [24]: 12.9%
viability, T/C [25]: 105%
viability, T/C [26]: 95.9%
viability, T/C [27]: 72.6%
viability, T/C [28]: 53.6%
viability, T/C [29]: 28.8%
viability, T/C [30]: 10.3%
viability, T/C [31]: 88.2%
viability, T/C [32]: 93.3%
viability, T/C [33]: 60.3%
viability, T/C [34]: 35.8%
viability, T/C [35]: 17.7%
viability, T/C [36]: 7.76%
viability, T/C [37]: 94.3%
viability, T/C [38]: 65.2%
viability, T/C [39]: 38.3%
viability, T/C [40]: 16.5%
viability, T/C [41]: 11.8%
viability, T/C [42]: 11.6%

C#Cc1c(F)ccc2cc(O)cc(-c3ncc4c(N5CC6CCC(C5)N6)nc(OCC56CCCN5CC(F)C6)nc4c3F)c12 (stereo not drawn) + COC1C(OC(N)=O)C(O)C(Oc2ccc3c(O)c(NC(=O)c4ccc(O)c(CC=C(C)C)c4)c(=O)oc3c2C)OC1(C)C
IC50 [1]: > 10 µM
IC50 [2]: > 10 µM
IC50 [3]: > 10 µM
IC50 [4]: > 10 µM
IC50 [5]: > 10 µM
IC50 [6]: > 10 µM
viability, T/C [7]: 100%
viability, T/C [8]: 97.4%
viability, T/C [9]: 90.5%
viability, T/C [10]: 101%
viability, T/C [11]: 98%
viability, T/C [12]: 79.5%
viability, T/C [13]: 105%
viability, T/C [14]: 101%
viability, T/C [15]: 98.8%
viability, T/C [16]: 90.3%
viability, T/C [17]: 94.9%
viability, T/C [18]: 90.4%
viability, T/C [19]: 105%
viability, T/C [20]: 98.4%
viability, T/C [21]: 104%
viability, T/C [22]: 87.2%
viability, T/C [23]: 92.8%
viability, T/C [24]: 90%
viability, T/C [25]: 96.9%
viability, T/C [26]: 98.8%
viability, T/C [27]: 94.9%
viability, T/C [28]: 94.2%
viability, T/C [29]: 93%
viability, T/C [30]: 86.9%
viability, T/C [31]: 96.9%
viability, T/C [32]: 90.3%
viability, T/C [33]: 98.3%
viability, T/C [34]: 81.7%
viability, T/C [35]: 99.5%
viability, T/C [36]: 74.9%
viability, T/C [37]: 81.8%
viability, T/C [38]: 86.2%
viability, T/C [39]: 90.4%
viability, T/C [40]: 89.5%
viability, T/C [41]: 96.2%
viability, T/C [42]: 72.1%

CC(C)n1c(=O)n(C)c2cnc3cc(F)c(-c4ccc(OCCCN5CCCCC5)nc4)cc3c21
viability, T/C (compound 0.0316 µM): 109% and 101% and 100%
viability, T/C (compound 0.1 µM): 103% and 94.2% and 94%
viability, T/C (compound 0.316 µM): 107% and 99.9% and 97.4%
viability, T/C (compound 1 µM): 99.4% and 95.3% and 105%
viability, T/C (compound 3.16 µM): 90% and 92.7% and 83.1%
viability, T/C (compound 10 µM): 63.3% and 83% and 68%
IC50 (curve of compound): > 10 µM

CCc1cc2c(N3CCc4c(cc(Cn5ccnc5)cc4-c4cn(C)nc4C(F)(F)F)C3=O)cc(C)nc2c(OC)n1
viability, T/C (compound 0.0316 µM): 93.1% and 105% and 99.3%
viability, T/C (compound 0.1 µM): 106% and 104% and 101%
viability, T/C (compound 0.316 µM): 98% and 103% and 106%
viability, T/C (compound 1 µM): 108% and 107% and 106%
viability, T/C (compound 3.16 µM): 99.3% and 102% and 104%
viability, T/C (compound 10 µM): 71.7% and 94.3% and 102%
IC50 (curve of compound): > 10 µM
